Converted amounts (≈) assume the structure as drawn. Like-named read-outs stand apart in the source and are kept apart here. Positions of bridges follow the written chain, without caps; N, C: chain ends. Residues, ends and D or L forms follow the SMILES beside them. Chains are numbered I, II in the order given. *: point of attachment. Octanoyl = CCCCCCCC(=O)*
What was measured:
[1] = In vivo acute systemic toxicity test; details: C57BL6, mouse, mice, read-out: Tolerate concentration
Experimental: (§1) Wild type C57BL6 (6-8 weeks old) (20-30 gram weigh) mice purchased from National University of Singapore were used for this study. All animals were utilized after 1 week acclimatization and put in air conditioned rooms with controlled temperature (23±2° C.), 12 hours light-dark cycle and humidity (55-60%). All animals were conducted in compliance with the Association for Research in Vision and Ophthalmology (ARVO) statement for the Use of Animals in Ophthalmic, and Vision Research, the guide for the Care and Use of laboratory animals (National Research Council) and under the supervision of Singhealth Experimental Medical Centre (SEMC). To investigate the corneal toxicity, three normal and healthy wild type mice had been chosen randomly and treated with 1 mg/ml and 3 mg/ml of C8V2D in 10 mM PBS. C8V2D was applied topically 5 times/day for 4 days. Cornea clarity had been checked by slit lamp microscopy for everyday follow-up to day 4 after application. To study the acute systemic toxicity, C8V2D was administrated via intravenous and intraperitoneal routes. Two mice have been chosen for each route and moitored carefully through 24 hours to observe and record any mortality, morbidity or toxicity signs. Gross necropsy would be done on any mortality or moribund animal.

[2] = In vivo topical (corneal) toxicity test; details: C57BL6, mouse, topical or ocular, mice, 5 times/day for 4 days, read-out: Tolerate concentration
Experimental: as §1

in vitro [3] = format: cell-based; details: human
Experimental: Cells were plated at a density of 10,000 cells per well in a 96-well opaque white plate (SPL Life Sciences Inc. Korea). Test compounds of various concentrations and controls were added to appropriate wells such that the final volume is 100 μl in each well. After 4 hours of exposure to the test compounds, the plates were removed from 37° C. incubator and equilibrated to 22° C. for 30 minutes. One hundred microliters of CellTiter-Glo reagent (Promega Inc. USA) was added to each well and the ATP assay was performed according to manufacturer's instructions. Luminescence was assessed using a micro-plate reader (Tecan Infinite 200 Pro, Switzerland). The cells exposed to 1% Triton X-100 were used as a positive control. The percent cell viable of each compound was determined using the formula below (L=Luminescence detected):
% Viability=[(Lnegative controls)−(Lexperiments)]/[(Lnegative controls)−(Lpositive controls)]×100

[4] = system: red blood cells (RBCs) of New Zealand white rabbits; experiment: in vitro; format: cell-based, rabbit; details: red cells of rabbit, 1 h
in vitro [5] = format: cell-based; details: human; remark: listed apart in the source
Experimental: The cytotoxicity of individual compounds screened was determined by the lactate dehydrogenase (LDH) assay. In brief, human corneal fibroblast cells were plated at a density of 10,000 cells per well in a 96-well opaque white plate (SPL Life Sciences Inc). Test compounds of various concentrations and controls were added to appropriate wells such that the final volume is 100 μl in each well. After 4 hours of exposure to the test compounds, the plates were removed from 37° C. incubator and equilibrated to 22° C. for 30 minutes. One hundred microliters of Cyto-TOX One reagent (Promega Inc. USA) was added to each well and the LDH assay was performed according to manufacturer's instructions. Fluorescence was assessed at an excitation wavelength of 560 nm and an emission wavelength of 590 nm using a micro-plate reader (Tecan Infinite 200 Pro, Switzerland). The cells exposed to 1% Triton X-100 were used as a positive control and treated as maximum releasing of LDH. The percent specific cytotoxicity of each compound was determined using the formula below (I=intensity):
% Cytotoxicity=[(Iexperiments)−(Inegative controls)]/[Ipositive controls)−(Inegative controls)]×100

[6] = system: Escherichia coli ATCC27922; format: cell-based
[7] = system: Klebsiella pneumoniae DM4299; format: cell-based
Pseudomonas aeruginosa = format: cell-based
Outline: (§2)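 MIC by CLSI broth macro-dilution: two-fold serial dilutions of peptides in cation-adjusted Mueller Hinton broth, inoculum about 5×10^5 CFU/mL. Read after 24 h incubation at 35° C. Strains: S. aureus DM4001, MRSA DM9808, P. aeruginosa ATCC23155.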

Staphylococcus aureus = format: cell-based
Outline: as §2

[8] = system: Methicillin-resistant Staphylococcus aureus (MRSA); format: cell-based
Outline: as §2

## CCCCCCCC(=O)N[C@@H](CCCNC(=N)N)C(=O)NCC(=O)N[C@@H](CCCNC(=N)N)C(=O)N[C@@H](CCCCN)C(=O)N[C@H](C(=O)N[C@H](C(=O)N[C@@H](CCCNC(=N)N)C(=O)N[C@@H](CCCNC(=N)N)C(=O)NCCCC[C@H](NC(=O)[C@H](CCCNC(=N)N)NC(=O)[C@H](CCCNC(=N)N)NC(=O)[C@@H](NC(=O)[C@@H](NC(=O)[C@H](CCCCN)NC(=O)[C@H](CCCNC(=N)N)NC(=O)CNC(=O)[C@H](CCCNC(=N)N)NC(=O)CCCCCCC)C(C)C)C(C)C)C(=O)N[C@@H](CCCCN)C(=O)O)C(C)C)C(C)C [Peptide C8-V2D, (C7H15—CO—NH—RGRKVVRR)2KK] (I: Octanoyl-RGRKVVRRKK-OH / II: Octanoyl-RGRKVVRR; amide I:9-II:C)
[1]; Intravenous (i.v.)
  MTD at 24 h: 6.25 mg/kg
[1]; ip, Intraperitoneal (i.p.)
  MTD at 24 h: 100 mg/kg
[2]
  MTD at 96 h: ≥ 3 mg/kg
In vitro [3]
  CC50 at 4 h: > 2000 µM
[4]
  HC10: >2000 µg/mL
In vitro [5]
  CC50 at 4 h: > 3000 µM
[6]
  MIC: 4.92 µM (≈ 12.5 µg/mL)
[7]
  MIC: 2.46 µM (≈ 6.26 µg/mL)
Pseudomonas aeruginosa
  MIC: 2.46 µM (≈ 6.26 µg/mL)
Staphylococcus aureus
  MIC: 2.46 µM (≈ 6.26 µg/mL)
[8]
  MIC: 1.23 µM (≈ 3.13 µg/mL)
